Experimental data reported in publication PMC10086185, “Synthesis, radiolabeling, and evaluation of a (4-quinolinoyl)glycyl-2-cyanopyrrolidine analogue for fibroblast activation protein (FAP) PET imaging” (Frontiers in Bioengineering and Biotechnology, 2023).
“And” between values parts separate entries of the source, which are not always exact repeats. Identical values can stand only once.

How the values were obtained:
[1] = Lipid/water partition coefficient in octanol/PBS (log D 7.4); assay type: physicochemical; settings: pH 7.4
Protocol: The lipid/water partition coefficient of [^18F]3 was tested in octanol/PBS mixtures, following the published literature reports ([Li et al., 2019]) and presented as log D 7.4 values. Briefly, a small volume of [^18F]3 was added into an octanol/water mixture, and then, a series of diluted octanol/PBS mixtures was obtained, as described in the literature. The CPM in octanol and the PBS layer was obtained in a Wizard 2470 gamma counter (PerkinElmer) and was used to calculate the lipid/PBS partition coefficient. Several continuous and stable partition coefficient values were selected to calculate the log D 7.4 values.

[2] = Biodistribution in normal Kunming mice; assay type: in vivo; settings: for Biodistribution, Intestine, single mice: individual animals; for Biodistribution, Blood / Biodistribution, Bone / Biodistribution, Brain / Biodistribution, Heart / Biodistribution, Intestine / Biodistribution, Kidney / Biodistribution, Lungs / Biodistribution, Muscle / Biodistribution, Spleen / Biodistribution, Stomach / Biodistribution, Liver: mean (SD), n = 5
Protocol: Normal Kunming mice (4 weeks, 20–25 g) were injected intravenously with about 740 KBq of [^18F]3 in 100 µL of PBS saline solution via the tail vein. All subjects were grouped by time points (n = 5). At designated time points, all subjects were sacrificed, and the organs and tissues were harvested, weighted, and counted in a PerkinElmer Wizard 2470 gamma counter. All the counts obtained from the gamma counter were decay-corrected and used to calculate the tissue biodistribution data, which is presented as the percentage of injected dose per gram of organ (%ID/g).

SMILES: N#C[C@@H]1CC(F)(F)CN1C(=O)CNC(=O)c1ccnc2ccc([18F])cc12 [[^18F]3]
- logD [1]: 1.11
- Biodistribution, Intestine, single mice ([2]; 5 min post-injection (time inferred from the means)): 10.34 %ID/g and 11.05 %ID/g and 10.3 %ID/g and 22.06 %ID/g and 16.22 %ID/g
- Biodistribution, Blood ([2]; 5 min post-injection): 12.96 ± 2.03 %ID/g
- Biodistribution, Bone ([2]; 5 min post-injection): 1.86 ± 0.54 %ID/g
- Biodistribution, Brain ([2]; 5 min post-injection): 0.80 ± 0.29 %ID/g
- Biodistribution, Heart ([2]; 5 min post-injection): 11.00 ± 1.64 %ID/g
- Biodistribution, Intestine ([2]; 5 min post-injection): 13.99 ± 4.60 %ID/g
- Biodistribution, Kidney ([2]; 5 min post-injection): 22.59 ± 5.74 %ID/g
- Biodistribution, Lungs ([2]; 5 min post-injection): 11.36 ± 1.89 %ID/g
- Biodistribution, Muscle ([2]; 5 min post-injection): 8.02 ± 1.34 %ID/g
- Biodistribution, Spleen ([2]; 5 min post-injection): 8.71 ± 1.50 %ID/g
- Biodistribution, Stomach ([2]; 5 min post-injection): 7.82 ± 0.86 %ID/g
- Biodistribution, Intestine, single mice ([2]; 15 min post-injection (time inferred from the means)): 27.17 %ID/g and 17.59 %ID/g and 22.86 %ID/g and 23.43 %ID/g
- Biodistribution, Blood ([2]; 15 min post-injection): 6.90 ± 1.13 %ID/g
- Biodistribution, Bone ([2]; 15 min post-injection): 1.59 ± 0.51 %ID/g
- Biodistribution, Brain ([2]; 15 min post-injection): 0.61 ± 0.25 %ID/g
- Biodistribution, Heart ([2]; 15 min post-injection): 5.71 ± 1.12 %ID/g
- Biodistribution, Intestine ([2]; 15 min post-injection): 20.10 ± 6.14 %ID/g
- Biodistribution, Kidney ([2]; 15 min post-injection): 12.72 ± 3.88 %ID/g
- Biodistribution, Liver ([2]; 15 min post-injection): 27.82 ± 6.35 %ID/g
- Biodistribution, Lungs ([2]; 15 min post-injection): 6.84 ± 1.43 %ID/g
- Biodistribution, Muscle ([2]; 15 min post-injection): 5.32 ± 1.02 %ID/g
- Biodistribution, Spleen ([2]; 15 min post-injection): 4.56 ± 1.09 %ID/g
- Biodistribution, Stomach ([2]; 15 min post-injection): 6.98 ± 1.36 %ID/g
- Biodistribution, Intestine, single mice ([2]; 30 min post-injection (time inferred from the means)): 31.76 %ID/g and 22.3 %ID/g and 32.3 %ID/g and 24.86 %ID/g and 56.33 %ID/g
- Biodistribution, Blood ([2]; 30 min post-injection): 4.35 ± 0.66 %ID/g
- Biodistribution, Bone ([2]; 30 min post-injection): 1.80 ± 0.60 %ID/g
- Biodistribution, Brain ([2]; 30 min post-injection): 0.35 ± 0.10 %ID/g
- Biodistribution, Heart ([2]; 30 min post-injection): 3.53 ± 0.33 %ID/g
- Biodistribution, Intestine ([2]; 30 min post-injection): 33.51 ± 12.05 %ID/g
- Biodistribution, Kidney ([2]; 30 min post-injection): 8.48 ± 1.34 %ID/g
- Biodistribution, Liver ([2]; 30 min post-injection): 15.34 ± 2.67 %ID/g
- Biodistribution, Lungs ([2]; 30 min post-injection): 5.15 ± 1.59 %ID/g
- Biodistribution, Spleen ([2]; 30 min post-injection): 2.95 ± 0.49 %ID/g
- Biodistribution, Stomach ([2]; 30 min post-injection): 5.50 ± 1.26 %ID/g
- Biodistribution, Intestine, single mice ([2]; 60 min post-injection (time inferred from the means)): 31 %ID/g and 24.55 %ID/g and 17.85 %ID/g and 13.74 %ID/g and 9.5 %ID/g
- Biodistribution, Blood ([2]; 60 min post-injection): 2.61 ± 0.18 %ID/g
- Biodistribution, Bone ([2]; 60 min post-injection): 1.91 ± 0.33 %ID/g
- Biodistribution, Brain ([2]; 60 min post-injection): 0.20 ± 0.04 %ID/g
- Biodistribution, Heart ([2]; 60 min post-injection): 1.91 ± 0.24 %ID/g
- Biodistribution, Intestine ([2]; 60 min post-injection): 19.33 ± 7.66 %ID/g
- Biodistribution, Kidney ([2]; 60 min post-injection): 5.07 ± 0.81 %ID/g
- Biodistribution, Liver ([2]; 60 min post-injection): 9.03 ± 3.62 %ID/g
- Biodistribution, Lungs ([2]; 60 min post-injection): 2.35 ± 1.07 %ID/g
- Biodistribution, Muscle ([2]; 60 min post-injection): 2.60 ± 1.20 %ID/g
- Biodistribution, Spleen ([2]; 60 min post-injection): 1.46 ± 0.24 %ID/g
- Biodistribution, Stomach ([2]; 60 min post-injection): 2.98 ± 1.22 %ID/g
- Biodistribution, Intestine, single mice ([2]; 90 min post-injection (time inferred from the means)): 6.25 %ID/g and 12.96 %ID/g and 10.39 %ID/g and 11.77 %ID/g and 4.91 %ID/g
- Biodistribution, Intestine, single mice ([2]; 120 min post-injection (time inferred from the means)): 6.06 %ID/g and 1.76 %ID/g and 4.52 %ID/g and 2.19 %ID/g and 9.23 %ID/g
- Biodistribution, Blood ([2]; 120 min post-injection): 1.29 ± 0.28 %ID/g
- Biodistribution, Bone ([2]; 120 min post-injection): 1.65 ± 0.81 %ID/g
- Biodistribution, Brain ([2]; 120 min post-injection): 0.08 ± 0.02 %ID/g
- Biodistribution, Heart ([2]; 120 min post-injection): 0.93 ± 0.20 %ID/g
- Biodistribution, Intestine ([2]; 120 min post-injection): 4.75 ± 2.73 %ID/g
- Biodistribution, Kidney ([2]; 120 min post-injection): 2.27 ± 0.93 %ID/g
- Biodistribution, Liver ([2]; 120 min post-injection): 5.39 ± 3.36 %ID/g
- Biodistribution, Lungs ([2]; 120 min post-injection): 1.87 ± 0.49 %ID/g
- Biodistribution, Muscle ([2]; 120 min post-injection): 1.51 ± 0.48 %ID/g
- Biodistribution, Spleen ([2]; 120 min post-injection): 0.85 ± 0.13 %ID/g
- Biodistribution, Stomach ([2]; 120 min post-injection): 1.63 ± 0.51 %ID/g
- Biodistribution, Intestine, single mice ([2]; 240 min post-injection (time inferred from the means)): 7.72 %ID/g and 2.48 %ID/g and 5.26 %ID/g and 2.09 %ID/g and 6.66 %ID/g
- Biodistribution, Blood ([2]; 240 min post-injection): 0.75 ± 0.19 %ID/g
- Biodistribution, Bone ([2]; 240 min post-injection): 1.33 ± 0.30 %ID/g
- Biodistribution, Brain ([2]; 240 min post-injection): 0.04 ± 0.02 %ID/g
- Biodistribution, Heart ([2]; 240 min post-injection): 0.39 ± 0.11 %ID/g
- Biodistribution, Intestine ([2]; 240 min post-injection): 4.84 ± 2.23 %ID/g
- Biodistribution, Kidney ([2]; 240 min post-injection): 0.82 ± 0.23 %ID/g
- Biodistribution, Liver ([2]; 240 min post-injection): 2.47 ± 1.47 %ID/g
- Biodistribution, Lungs ([2]; 240 min post-injection): 0.69 ± 0.19 %ID/g
- Biodistribution, Muscle ([2]; 240 min post-injection): 0.76 ± 0.23 %ID/g
- Biodistribution, Spleen ([2]; 240 min post-injection): 0.38 ± 0.13 %ID/g
- Biodistribution, Stomach ([2]; 240 min post-injection): 1.64 ± 0.69 %ID/g
- Activity in the bone ([2]; all time points): lower than 2 %ID/g
- Radioactivity in the brain ([2]; all time points): lower than 1 %ID/g
